Consider twelve compounds from US4486445A, “Justicidin insecticidal and antiviral compounds” (E. I. Du Pont de Nemours and Company, priority 1983, dated 1984).

The subject of one data set is Aedes egypti larvae. Put plainly: insecticidal activity against larvae of A. egypti in water. The class given is in vivo. To be noted: larvae of A. egypti in H2O; for LC50: Aedes, read-out: EC50 (effective kill concentration for 50% of the experimental larvae). The method, then:
The insecticidal activity of the crude acetone/water extracts of Justicia extensa, prepared according to the isolation procedure described previously, was tested against laboratory cultures of the mosquito species Aedes egypti (Linnaeus) and southern army worm (SAW) Spodoptera eridania (Cramer). Extracts of leaves, branches and roots were employed in each test.
In tests against larvae of A. egypti, 10 mg of the crude plant extract was thoroughly dispersed in 20 ml of water in a test tube to which 10 first instar larvae were added.

Data set [1] concerns Human Rhino Virus (HRV-2). Put plainly: inhibition of HRV-2 in HeLa cells. It counts as cell-based, Human rhinovirus HRV-2. The settings on record: Rhinovirus A; for inhibition at 0.016 µg/mL: HRV2, 0.016 μg/ml; for inhibition at 0.08 µg/mL: HRV2, 0.08 μg/ml; for inhibition at 0.4 µg/mL: HRV2, 0.4 μg/ml; for inhibition at 2 µg/mL: HRV2, 2 μg/ml; for inhibition at 10 µg/mL: HRV2, 10 μg/ml.

In a further data set the test system is A/JAX inbred mice. Put plainly: in vivo oral toxicity in A/JAX inbred mice. To be noted: orally, 200 and 100 mg/kg. As for the experimental part: In vivo toxicity studies of natural and synthetic Justicidin P produced mixed results. […] However, natural and synthetic Justicidin P were toxic to A/JAX inbred mice when administered orally at dosages of 200 and 100 mg/kg.

A further data set has as its system fish. To be noted: in vivo, cited from earlier work.
In data set [2] the test system is mosquito larvae of the species Culex pipiens pallens. The settings on record: mixtures with pyrethrin or allethrin; cited from earlier work.
The next data set concerns Herpes Type 1-strain VR3. Put plainly: plaque formation inhibition, Herpes Type 1 in HeLa cells. It counts as cell-based. The settings on record: for antiviral activity against Herpes Type 1: HeLa cells.
The test system of data set [3] is Herpes Type 2-Alabama strain. Put plainly: plaque formation inhibition, Herpes Type 2 in HeLa cells. It counts as cell-based. The settings on record: for antiviral activity against Herpes Type 2: HeLa cells.
The subject of the next data set is HeLa cells. The class given is cell-based.
A further data set has as its system IMR-90 cells. To be noted: substantially similar test conditions.

≈ marks a conversion by molar mass, not a printed value. Like-named read-outs stand apart in the source and are kept apart here. Some results are limits rather than exact numbers.

As a reminder, the inhibition is the relative decrease from the control value, in per cent. As for `COc1cc2c(OC)c3c(c(-c4ccc5c(c4)OCO5)c2cc1OC)C(=O)OC3F` (racemic) [Compound 14, (±)-9-(1,3-Benzodioxol-5-yl)-3-fluoro-4,6,7-trimethoxynaphtho[2,3-c]furan-1(3H)-one], the LC50 with Aedes egypti larvae was found to be 0.7 µg/mL (≈ 1.7 µM). Moreover, in [1] (400 PFU), the inhibition at 0.016 µg/mL was found to be 0%, the inhibition at 0.08 µg/mL was found to be 0%, the inhibition at 0.4 µg/mL amounted to 0% and the inhibition at 2 µg/mL stood at 21%. For the same compound, the inhibition at 10 µg/mL in [1] (400 PFU) was found to be 79%.

On to `COc1cc2c(OC)c3c(c(-c4ccc5c(c4)OCO5)c2cc1OC)C(=O)OC3OC(C)=O` (racemic) [Compound 15], for which the LC50 in the data set on Aedes egypti larvae was 1 µg/mL (≈ 2.21 µM). Further, in data set [1] (400 PFU), the inhibition at 0.016 µg/mL stood at 0%, the inhibition at 0.08 µg/mL turned out to be 0%, the inhibition at 0.4 µg/mL is 0% and the inhibition at 2 µg/mL was found to be 0%. Also, the inhibition at 10 µg/mL in data set [1] (400 PFU) came to 72%.

Take `COc1cc2c(OC)c3c(c(-c4ccc5c(c4)OCO5)c2cc1OC)C(=O)OC3OC` (racemic) [Justicidin P (synthetic), (±)-9-(1,3-Benzodioxol-5-yl)-3,4,6,7-tetramethoxynaphtho[2,3-c]furan-1(3H)-one]: the LC50 with Aedes egypti larvae was 0.01 µg/mL (≈ 0.0236 µM). For the same compound, in data set [1] (400 PFU), the inhibition at 0.016 µg/mL came to 0%, the inhibition at 0.08 µg/mL came to 0%, the inhibition at 0.4 µg/mL came to 0% and the inhibition at 2 µg/mL is 73%. Further, the inhibition at 10 µg/mL in data set [1] (400 PFU) stood at 43%. For the same compound, the in vivo toxicity result in the data set on A/JAX inbred mice was “toxic”.

Take `COc1cc2c(OC)c3c(c(-c4ccc5c(c4)OCO5)c2cc1OC)C(=O)OC3` [Justicidin A, 9-(1,3-Benzodioxol-5-yl)-4,6,7-trimethoxynaphtho[2,3-c]furan-1(3H)-one]: the LC50 in the data set on Aedes egypti larvae worked out at 10 µg/mL (≈ 25.4 µM). The piscicidal activity entry with fish is reported as “extraordinary piscicidal activity”; with fish (listed as justicidins A), “active piscicidal components”. The synergistic behavior result in data set [2] is on record as “synergistic behavior was observed”.

As for `CCCOC1OC(=O)c2c1c(OC)c1cc(OC)c(OC)cc1c2-c1ccc2c(c1)OCO2` (racemic) [Compound 17, (±)-9-(1,3-Benzodioxol-5-yl)-3-propoxy-4,6,7-trimethoxynaphtho[2,3-c]furan-1(3H)-one], the LC50 in the data set with Aedes egypti larvae was 0.8 µg/mL (≈ 1.77 µM). Besides, the inhibition at 0.1 µg/mL in the data set with Herpes Type 1-strain VR3 (0.1 μg/ml, HeLa, read-out: plaque formation inhibition against Type 1 (average)) stood at 71%. Further, the “antiviral activity against Herpes Type 1” value in the data set on Herpes Type 1-strain VR3 is recorded as “demonstrated antiviral activity”. Also, in data set [3] (0.1 μg/ml, HeLa, read-out: plaque formation inhibition against Type 2 (average)), the inhibition at 0.1 µg/mL was found to be 91%. For the same compound, in data set [3], the “antiviral activity against Herpes Type 2” value is “demonstrated antiviral activity”. The cytotoxicity result in the data set on HeLa cells (1 μg/ml) was “cytotoxic”. In data set [1] (200 PFU), the inhibition at 0.016 µg/mL is at least 100%, the inhibition at 0.08 µg/mL was at least 100%, the inhibition at 0.4 µg/mL is at least 100% and the inhibition at 2 µg/mL is at least 74%.

With `CCCCCCCCCCCCOC1OC(=O)c2c1c(OC)c1cc(OC)c(OC)cc1c2-c1ccc2c(c1)OCO2` (stereo not drawn) [Compound 20], in [1] (200 PFU), the inhibition at 0.016 µg/mL was determined as 0%, the inhibition at 0.08 µg/mL was determined as 0%, the inhibition at 0.4 µg/mL was found to be 10% and the inhibition at 2 µg/mL amounted to 74%. The inhibition at 10 µg/mL in [1] (200 PFU) is 83%.

In the case of `COc1cc2cc3c(c(-c4ccc5c(c4)OCO5)c2cc1OC)C(=O)OC3` [Justicidin B], the piscicidal activity result is reported as “extraordinary piscicidal activity” with fish and “active piscicidal components” with fish (listed as B). Besides, in data set [2], the synergistic behavior entry was “synergistic behavior was observed”.

Take `COc1cc2c(O)c3c(c(-c4ccc5c(c4)OCO5)c2cc1OC)C(=O)OC3` [Diphyllin, 9-(1,3-Benzodioxol-5-yl)-6,7-dimethoxy-4-hydroxynaphtho[2,3-c]furan-1(3H)-one, reference compound]: the “EC50 (effective kill concentration for 50% of the experimental larvae)” value in the data set with Aedes egypti larvae is given as “not active”.

Regarding `COc1cc2c(OC)c3c(c(-c4ccc5c(c4)OCO5)c2cc1OC)C(=O)OC3OC(C)C` (stereo not drawn) [Compound 19], the LC50 in the data set on Aedes egypti larvae was 0.7 µg/mL (≈ 1.55 µM). Further, the cytotoxicity result with HeLa cells (1, 4, 16 and 64 μg/ml) was “demonstrated cytotoxic properties”. In data set [1] (200 PFU), the inhibition at 0.016 µg/mL is 100%, the inhibition at 0.08 µg/mL is at least 100%, the inhibition at 0.4 µg/mL was 107% and the inhibition at 2 µg/mL amounted to 14%.

Regarding `COc1cc2c(OC)c3c(c(-c4ccc5c(c4)OCO5)c2cc1OC)C(=O)OC3O` (racemic) [Compound 16, (±)-9-(1,3-Benzodioxol-5-yl)-3-hydroxy-4,6,7-trimethoxynaphtho[2,3-c]furan-1(3H)-one], the LC50 in the data set with Aedes egypti larvae was 10 µg/mL (≈ 24.4 µM). For the same compound, in data set [1] (400 PFU), the inhibition at 0.016 µg/mL stood at 0%, the inhibition at 0.08 µg/mL worked out at 0%, the inhibition at 0.4 µg/mL came out at 0% and the inhibition at 2 µg/mL stood at 0%. Moreover, in [1] (400 PFU), the inhibition at 10 µg/mL was found to be 98%.

Turning to `CCCCCCCSC1OC(=O)c2c1c(OC)c1cc(OC)c(OC)cc1c2-c1ccc2c(c1)OCO2` (stereo not drawn) [Compound 18], the inhibition at 1 µg/mL in the data set with Herpes Type 1-strain VR3 (1 μg/ml, HeLa, read-out: inhibition against Type 1) was 17%. Besides, in the data set on Herpes Type 1-strain VR3 (4 μg/ml, HeLa, read-out: inhibition against Type 1), the inhibition at 4 µg/mL came to 81%. Further, in the data set with Herpes Type 1-strain VR3, the “antiviral activity against Herpes Type 1” value is “demonstrated antiviral activity”. In data set [3] (1 μg/ml, HeLa, read-out: inhibition against Type 2), the inhibition at 1 µg/mL was determined as 16%. Further, the inhibition at 4 µg/mL in [3] (4 μg/ml, HeLa, read-out: inhibition against Type 2) was determined as 77%. Also, the “antiviral activity against Herpes Type 2” value in data set [3] was “demonstrated antiviral activity”. The cytotoxicity entry with HeLa cells (64 and 16 μg/ml) is recorded as “cytotoxic”. In addition, in data set [1] (200 PFU), the inhibition at 0.016 µg/mL was found to be 80%, the inhibition at 0.08 µg/mL is at least 100% and the inhibition at 0.4 µg/mL is at least 100%.

As to `Nc1nc2c(ncn2COCCO)c(=O)[nH]1` [acyclovir, 9-(2-hydroxy-ethoxymethyl)guanine, reference compound], in the data set on Herpes Type 1-strain VR3 (HeLa, 8 μg/ml, similar test conditions), the inhibition at 8 µg/mL stood at 90%. Moreover, the “inhibition of Type 2 plaque formation” value in data set [3] (range between 0.5 μg/ml and 8 μg/ml, similar test conditions) is reported as 90-99%. In data set [1] (400 PFU), the inhibition at 0.016 µg/mL is 0%, the inhibition at 0.08 µg/mL worked out at 0%, the inhibition at 0.4 µg/mL is 0% and the inhibition at 2 µg/mL came out at 0%. Also, in data set [1] (400 PFU), the inhibition at 10 µg/mL came to 0%. Also, in the data set on IMR-90 cells, the “sensitivity of IMR-90 cells” value is given as “sensitive”.
